Measurements from the NIST ThermoML archive (doi:10.1016/j.jct.2014.06.023).
Several values for one entry are separate records, joined by “and”; a condition that tells them apart may be missing. Equal values may be shown once.

Details: Buoyancy - hydrostatic balance with magnetic suspension - one sinker

CC [ethane]
Details | mass density
225.41 K, 310.68 kPa, Gas | 5.2843 kg/m3
225.41 K, 1642.2 kPa, Liquid | 489.85 kg/m3
225.42 K, 212.66 kPa, Gas | 3.5454 kg/m3
225.42 K, 1086.8 kPa, Liquid | 488.834 kg/m3
225.42 K, 2133.2 kPa, Liquid | 490.717 kg/m3
225.43 K, 709.57 kPa, Liquid | 488.151 kg/m3
225.44 K, 403.34 kPa, Gas | 6.9981 kg/m3
225.47 K, 499.44 kPa, Gas | 8.8558 kg/m3
230.34 K, 306.85 kPa, Gas | 5.0853 kg/m3
230.34 K, 1666.7 kPa, Liquid | 482.366 kg/m3
230.34 K, 2111.2 kPa, Liquid | 483.236 kg/m3
230.35 K, 197.35 kPa, Gas | 3.2054 kg/m3
230.35 K, 391.01 kPa, Gas | 6.5852 kg/m3
230.35 K, 493.22 kPa, Gas | 8.4852 kg/m3
230.35 K, 2447.9 kPa, Liquid | 483.853 kg/m3
230.36 K, 615.49 kPa, Gas | 10.8842 kg/m3
230.36 K, 1671.6 kPa, Liquid | 482.356 kg/m3
230.37 K, 1281 kPa, Liquid | 481.577 kg/m3
230.38 K, 886.51 kPa, Liquid | 480.769 kg/m3
235 K, 391.54 kPa, Gas | 6.4356 kg/m3
235.01 K, 305.16 kPa, Gas | 4.9382 kg/m3
235.01 K, 499.46 kPa, Gas | 8.3818 kg/m3
235.01 K, 592.34 kPa, Gas | 10.1286 kg/m3
235.02 K, 197.5 kPa, Gas | 3.137 kg/m3
235.03 K, 694.56 kPa, Gas | 12.1431 kg/m3
239.99 K, 717.05 kPa, Gas | 12.2167 kg/m3
240.01 K, 954.18 kPa, Gas | 17.1448 kg/m3
240.04 K, 105.82 kPa, Gas | 1.619 kg/m3
240.04 K, 323.6 kPa, Gas | 5.1239 kg/m3
240.04 K, 502.79 kPa, Gas | 8.2138 kg/m3
240.04 K, 1755.7 kPa, Liquid | 466.891 kg/m3
240.05 K, 2196.3 kPa, Liquid | 467.899 kg/m3
240.06 K, 1092.2 kPa, Liquid | 465.243 kg/m3
240.06 K, 1457.2 kPa, Liquid | 466.142 kg/m3
240.08 K, 2591.9 kPa, Liquid | 468.767 kg/m3
240.09 K, 2936.2 kPa, Liquid | 469.524 kg/m3
244.91 K, 880.77 kPa, Gas | 15.0548 kg/m3
244.91 K, 1111.6 kPa, Gas | 20.0182 kg/m3
244.92 K, 628.26 kPa, Gas | 10.2258 kg/m3
244.92 K, 877.28 kPa, Gas | 14.9812 kg/m3
244.92 K, 1123.2 kPa, Liquid | 456.739 kg/m3
244.92 K, 1225 kPa, Liquid | 457.081 kg/m3
244.92 K, 1442.7 kPa, Liquid | 457.624 kg/m3
244.93 K, 138.73 kPa, Gas | 2.0893 kg/m3
244.93 K, 350.79 kPa, Gas | 5.4481 kg/m3
244.93 K, 350.8 kPa, Gas | 5.4496 kg/m3
244.93 K, 904.97 kPa, Gas | 15.5558 kg/m3
244.93 K, 1659 kPa, Liquid | 458.187 kg/m3
244.93 K, 1659.6 kPa, Liquid | 458.185 kg/m3
244.95 K, 1111.4 kPa, Gas | 20.0202 kg/m3
249.79 K, 863.82 kPa, Gas | 14.2661 kg/m3
249.8 K, 863.8 kPa, Gas | 14.2677 kg/m3
249.8 K, 1281.6 kPa, Gas | 23.1579 kg/m3
249.81 K, 360.58 kPa, Gas | 5.4802 kg/m3
249.81 K, 633.6 kPa, Gas | 10.0488 kg/m3
249.81 K, 1067.5 kPa, Gas | 18.3574 kg/m3 and 18.3577 kg/m3
249.81 K, 1281.3 kPa, Gas | 23.1411 kg/m3
249.82 K, 147.6 kPa, Gas | 2.1773 kg/m3
249.84 K, 2352.9 kPa, Liquid | 451.272 kg/m3
249.85 K, 2081.5 kPa, Liquid | 450.462 kg/m3
249.86 K, 2510.3 kPa, Liquid | 451.694 kg/m3
249.86 K, 2510.4 kPa, Liquid | 451.694 kg/m3
249.87 K, 2510.9 kPa, Liquid | 451.681 kg/m3
249.9 K, 1805.5 kPa, Liquid | 449.546 kg/m3
249.93 K, 1301 kPa, Liquid | 447.948 kg/m3
249.93 K, 1354.2 kPa, Liquid | 448.104 kg/m3
249.93 K, 1591.6 kPa, Liquid | 448.847 kg/m3
254.69 K, 1692.1 kPa, Liquid | 439.901 kg/m3
254.69 K, 2265.9 kPa, Liquid | 441.863 kg/m3
254.7 K, 2492.4 kPa, Liquid | 442.576 kg/m3
254.7 K, 2493.3 kPa, Liquid | 442.588 kg/m3
254.72 K, 114.93 kPa, Gas | 1.6547 kg/m3
254.72 K, 2013.5 kPa, Liquid | 440.937 kg/m3
254.73 K, 225.89 kPa, Gas | 3.2988 kg/m3
254.74 K, 1474.7 kPa, Gas | 26.843 kg/m3
254.75 K, 3109.9 kPa, Liquid | 444.464 kg/m3
254.76 K, 634.94 kPa, Gas | 9.817 kg/m3
254.76 K, 825.19 kPa, Gas | 13.1528 kg/m3
254.76 K, 1040.1 kPa, Gas | 17.2189 kg/m3
254.76 K, 1280.4 kPa, Gas | 22.2529 kg/m3
254.76 K, 1280.5 kPa, Gas | 22.2533 kg/m3
254.76 K, 2860.9 kPa, Liquid | 443.666 kg/m3
254.77 K, 423.98 kPa, Gas | 6.354 kg/m3
254.78 K, 3457.8 kPa, Liquid | 445.504 kg/m3
254.81 K, 2648.7 kPa, Liquid | 442.883 kg/m3
259.62 K, 933.39 kPa, Gas | 14.7341 kg/m3
259.62 K, 1174.9 kPa, Gas | 19.3302 kg/m3
259.62 K, 1700.9 kPa, Liquid | 429.637 kg/m3
259.62 K, 2698.9 kPa, Liquid | 433.539 kg/m3
259.63 K, 152.52 kPa, Gas | 2.1615 kg/m3
259.63 K, 358.5 kPa, Gas | 5.211 kg/m3
259.63 K, 550.88 kPa, Gas | 8.2159 kg/m3
259.63 K, 726.92 kPa, Gas | 11.1161 kg/m3
259.63 K, 1351.5 kPa, Gas | 23.0156 kg/m3
259.63 K, 1351.6 kPa, Gas | 23.0046 kg/m3
259.63 K, 1548.6 kPa, Gas | 27.5129 kg/m3
259.63 K, 2097.3 kPa, Liquid | 431.21 kg/m3
259.63 K, 2412.9 kPa, Liquid | 432.441 kg/m3
259.63 K, 3076.2 kPa, Liquid | 434.902 kg/m3
265.02 K, 505.8 kPa, Gas | 7.3166 kg/m3
265.06 K, 116.65 kPa, Gas | 1.6114 kg/m3
265.06 K, 279.98 kPa, Gas | 3.9405 kg/m3
265.06 K, 3532.6 kPa, Liquid | 425.483 kg/m3
265.07 K, 1811.5 kPa, Gas | 32.6652 kg/m3
265.07 K, 2278.6 kPa, Liquid | 419.942 kg/m3
265.07 K, 2962.8 kPa, Liquid | 423.046 kg/m3
265.08 K, 1404.5 kPa, Gas | 23.2391 kg/m3
265.08 K, 1612.3 kPa, Gas | 27.8016 kg/m3
265.08 K, 2073 kPa, Liquid | 418.96 kg/m3
265.08 K, 2322.7 kPa, Liquid | 420.14 kg/m3
265.08 K, 2963.1 kPa, Liquid | 423.044 kg/m3
265.08 K, 3081.3 kPa, Liquid | 423.536 kg/m3
265.08 K, 3090.5 kPa, Liquid | 423.579 kg/m3
265.09 K, 2565.3 kPa, Liquid | 421.145 kg/m3
265.09 K, 3539.3 kPa, Liquid | 425.459 kg/m3
265.1 K, 816.83 kPa, Gas | 12.3046 kg/m3
265.1 K, 1004.4 kPa, Gas | 15.548 kg/m3
265.1 K, 1199.4 kPa, Gas | 19.1462 kg/m3
265.1 K, 2730.8 kPa, Liquid | 421.962 kg/m3
